Reference: article PMC7213754 (Clinical cancer research : an official journal of the …, 2009)
Several values for one entry are separate records, joined by “and”; a condition that tells them apart may be missing. Equal values may be shown once. Entries after “also recorded” stand apart in the source; their conditions may differ. Each block holds one compound with its values, some of them ahead of it.

Key:
Pgp [1] = target: T1, Pgp (Homo sapiens, UniProt P08183); assay: Rhodamine efflux from circulating CD56+ cells of patients
T1 sequence (P08183 whole entry): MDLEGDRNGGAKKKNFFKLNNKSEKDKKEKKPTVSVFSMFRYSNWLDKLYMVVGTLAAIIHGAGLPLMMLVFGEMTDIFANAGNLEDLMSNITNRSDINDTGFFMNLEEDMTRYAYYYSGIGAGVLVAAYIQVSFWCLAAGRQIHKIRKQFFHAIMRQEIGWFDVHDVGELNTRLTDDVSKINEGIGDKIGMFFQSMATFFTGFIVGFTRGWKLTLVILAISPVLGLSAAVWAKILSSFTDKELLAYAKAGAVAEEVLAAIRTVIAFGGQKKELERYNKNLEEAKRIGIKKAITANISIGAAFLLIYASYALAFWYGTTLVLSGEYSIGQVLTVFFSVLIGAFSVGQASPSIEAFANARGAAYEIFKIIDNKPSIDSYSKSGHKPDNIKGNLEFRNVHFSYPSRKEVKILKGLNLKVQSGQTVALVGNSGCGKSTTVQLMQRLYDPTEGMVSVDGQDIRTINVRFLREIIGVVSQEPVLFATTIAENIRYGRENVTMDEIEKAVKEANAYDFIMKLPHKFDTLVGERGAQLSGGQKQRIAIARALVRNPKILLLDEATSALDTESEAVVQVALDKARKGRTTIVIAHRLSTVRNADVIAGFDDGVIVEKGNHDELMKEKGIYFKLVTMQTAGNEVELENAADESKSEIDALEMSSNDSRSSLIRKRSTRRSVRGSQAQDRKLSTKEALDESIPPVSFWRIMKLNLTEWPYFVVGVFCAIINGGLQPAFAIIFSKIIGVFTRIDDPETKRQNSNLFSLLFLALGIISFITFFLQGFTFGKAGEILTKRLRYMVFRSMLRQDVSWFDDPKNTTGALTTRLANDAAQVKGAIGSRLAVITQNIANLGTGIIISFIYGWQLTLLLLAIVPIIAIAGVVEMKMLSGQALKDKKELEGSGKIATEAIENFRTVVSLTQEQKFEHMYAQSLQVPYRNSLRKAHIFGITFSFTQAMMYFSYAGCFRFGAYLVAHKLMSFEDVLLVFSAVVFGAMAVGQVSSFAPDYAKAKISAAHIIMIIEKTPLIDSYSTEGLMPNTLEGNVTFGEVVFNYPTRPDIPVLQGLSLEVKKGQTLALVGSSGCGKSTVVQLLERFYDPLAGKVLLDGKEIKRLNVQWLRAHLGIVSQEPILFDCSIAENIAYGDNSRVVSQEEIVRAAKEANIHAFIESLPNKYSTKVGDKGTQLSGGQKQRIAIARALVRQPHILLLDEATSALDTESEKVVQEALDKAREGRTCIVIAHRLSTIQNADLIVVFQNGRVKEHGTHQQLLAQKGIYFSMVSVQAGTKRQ

[2] = Vinorelbine pharmacokinetics in patients, alone and with tariquidar; type: in vivo, human; settings: for effect of tariquidar on vinorelbine pharmacokinetics: tariquidar 150 mg before vinorelbine
[3] = Tariquidar pharmacokinetics in patients; type: in vivo, human; settings: for concentration at 24 h / concentration at 48 h: intravenous, mean plasma concentration
Pgp [4] = settings: cited from earlier work
Pgp [5] = target: T1, Pgp; assay: 99mTc-sestamibi scanning at baseline and after tariquidar; type: in vivo
[6] = system: multidrug-resistant human tumor cell lines; settings: in vitro; cited from earlier work
Pgp [7] = target: T1, Pgp; settings: 150 mg tariquidar; cited from earlier work
[8] = cited from earlier work
[9] = cycle 2, 150 mg i.v. over 30 min, individual patients
[10] = vinorelbine after tariquidar (post), individual patients
[11] = vinorelbine after tariquidar, eight patients
[12] = vinorelbine alone (pre), individual patients
[13] = vinorelbine alone, eight patients

- rhodamine efflux from CD56+ cells with exogenously added inhibitor (Pgp [1]; added exogenously to blood sample): completely blocked
SMILES: C/C=C/C[C@@H](C)C(=O)[C@H]1C(=O)N[C@@H](C(C)C)C(=O)N(C)CC(=O)N(C)[C@@H](CC(C)C)C(=O)N[C@@H](C(C)C)C(=O)N(C)[C@@H](CC(C)C)C(=O)N[C@@H](C)C(=O)N[C@H](C)C(=O)N(C)[C@@H](CC(C)C)C(=O)N(C)[C@@H](CC(C)C)C(=O)N(C)[C@@H](C(C)C)C(=O)N1C [PSC833, valspodar]

- difference in drug exposure between 2 patients ([3]; 150 mg tariquidar): > 7 fold
- concentration at 24 h ([3]; human, plasma, 150 mg, cycle 1): 119 ng/mL
- concentration at 24 h ([3]; human, plasma, 150 mg, cycle 2): 121 ng/mL
- concentration at 48 h ([3]; human, plasma, 150 mg, cycle 1): 79.4 ng/mL
- concentration at 48 h ([3]; human, plasma, 150 mg, cycle 2): 69.5 ng/mL
- Clearance ([3]; human, plasma, iv, 150 mg, Clearance, median, cycle 2, 150 mg i.v. over 30 min, 18 patients): 235 mL/min
- Cmax ([3]; human, plasma, iv, 150 mg, Cmax, median, cycle 2, 150 mg i.v. over 30 min, 18 patients): 1220 ng/mL
- Half-life ([3]; human, plasma, iv, 150 mg, Half-life, median, cycle 2, 150 mg i.v. over 30 min, 18 patients): 33 h
- Vd ([3]; human, plasma, iv, 150 mg, Vdss, median, cycle 2, 150 mg i.v. over 30 min, 18 patients): 261 L
- Clearance ([3]; human, plasma, iv, 150 mg, mean (±SD) clearance, 150 mg i.v.): 287 ± 196 mL/min
- Half-life ([3]; human, plasma, iv, 150 mg, mean (±SD) terminal half-life, 150 mg i.v.): 33.6 ± 13.5 h
- effect on liver 99mTc-sestamibi clearance (Pgp [5]; 150-mg dose): reduced liver 99mTc-sestamibi clearance
SMILES: COc1cc2c(cc1OC)CN(CCc1ccc(NC(=O)c3cc(OC)c(OC)cc3NC(=O)c3cnc4ccccc4c3)cc1)CC2 [tariquidar]
- Pgp block by i.v. tariquidar compared with exogenous PSC833 (Pgp [1]; 8, 24 and 48 h after 150 mg i.v.): as effective in blocking Pgp as an excess of PSC833 added exogenously
- effect of tariquidar on vinorelbine pharmacokinetics [2]: no apparent effect of tariquidar on the disposition of vinorelbine; also recorded: did not affect the pharmacokinetics of vinorelbine
- effect of tariquidar on vinorelbine pharmacokinetics ([2]; listed as Tariquidar): no effects on vinorelbine pharmacokinetics
- Clearance [3, 9]: 170 mL/min and 312 mL/min and 559 mL/min and 309 mL/min and 249 mL/min and 302 mL/min and 444 mL/min and 784 mL/min and 221 mL/min and 269 mL/min and 623 mL/min and 166 mL/min and 83 mL/min and 129 mL/min and 111 mL/min and 137 mL/min and 108 mL/min and 191 mL/min
- Cmax [3, 9]: 1,551 ng/mL and 1,317 ng/mL and 963 ng/mL and 1,362 ng/mL and 1,102 ng/mL and 582 ng/mL and 1,168 ng/mL and 516 ng/mL and 912 ng/mL and 911 ng/mL and 622 ng/mL and 5,793 ng/mL and 3,632 ng/mL and 1,266 ng/mL and 6,113 ng/mL and 4,628 ng/mL and 2,207 ng/mL and 1,008 ng/mL
- Half-life [3, 9]: 27.2 h and 33.2 h and 17.5 h and 25.5 h and 27.6 h and 43.8 h and 15.7 h and 14.2 h and 42.2 h and 23.8 h and 19.2 h and 32.9 h and 63.1 h and 44.4 h and 45.0 h and 50.6 h and 35.8 h
- Vdss [3, 9]: 136 L and 343 L and 248 L and 206 L and 199 L and 661 L and 142 L and 348 L and 439 L and 553 L and 604 L and 82.3 L and 85.1 L and 447 L and 274 L and 234 L and 317 L and 247 L
- mode of inhibition of Pgp transport (Pgp [4]): noncompetitive
- transport substrate of Pgp (Pgp [4]): not a transport substrate of Pgp
- difference in mean 99mTc-sestamibi AUC in heart, lungs and liver (Pgp [5]; baseline versus after tariquidar, all study patients): Large differences were noted in Pgp-expressing liver but not in the heart nor in the lungs
- duration of action after removal of drug from the culture medium [6]: at least 22 hours
- mean change of 99mTc-sestamibi accumulation and retention in the liver (Pgp [7]): +128%
- tolerability (in vivo): well-tolerated

SMILES: CCC1=C[C@@H]2CN(C1)Cc1c([nH]c3ccccc13)[C@@](C(=O)OC)(c1cc3c(cc1OC)N(C)[C@H]1[C@@](O)(C(=O)OC)[C@H](OC(C)=O)[C@]4(CC)C=CCN5CC[C@]31[C@@H]54)C2 [vinorelbine]
- Clearance Post [2, 10]: 518 mL/min/m^2 and 536 mL/min/m^2 and 555 mL/min/m^2 and 1,097 mL/min/m^2 and 589 mL/min/m^2 and 617 mL/min/m^2 and 477 mL/min/m^2 and 462 mL/min/m^2
- t1/2 Post [2, 10]: 23 h and 51 h and 21 h and 43 h and 36 h and 58 h
- Clearance Post, median and range [2, 11]: 546 mL/min/m^2 and 462-1,097 mL/min/m^2
- t1/2 Post, median and range [2, 11]: 21 to 58 h
- AUC0-∞ Pre ([2]; vinorelbine alone (pre), i.v. bolus 20 or 22.5 mg/m^2, individual patients): 844 ng·h/mL and 635 ng·h/mL and 511 ng·h/mL and 838 ng·h/mL and 603 ng·h/mL and 758 ng·h/mL and 756 ng·h/mL
- Clearance Pre [2, 12]: 600 mL/min/m^2 and 444 mL/min/m^2 and 591 mL/min/m^2 and 652 mL/min/m^2 and 398 mL/min/m^2 and 553 mL/min/m^2 and 495 mL/min/m^2 and 496 mL/min/m^2
- t1/2 Pre [2, 12]: 22 h and 19 h and 28 h and 48 h and 21 h and 37 h and 36 h
- AUC0-∞ Pre, median and range [2, 13]: 511 to 844 ng·h/mL
- Clearance Pre, median and range [2, 13]: 524 mL/min/m^2 and 398-652 mL/min/m^2
- t1/2 Pre, median and range [2, 13]: 18 to 48 h
- effect of vinorelbine on tariquidar pharmacokinetics ([3]; human, in vivo): no effect on tariquidar pharmacokinetics
- dose of vinorelbine felt to be tolerable with zosuquidar ([8]; i.v. weekly for 3 weeks every 28 days): 22.5 mg/m^2
- maximum tolerated dose of vinorelbine in the combination (days 1 and 8 every 21 d with tariquidar 150 mg, without filgrastim): 20 mg/m^2

SMILES: O[C@@H](COc1cccc2ncccc12)CN1CCN([C@@H]2c3ccccc3[C@@H]3[C@H](c4ccccc42)C3(F)F)CC1 [zosuquidar]
- effect of zosuquidar on vinorelbine clearance ([8]; phase I study): may inhibit vinorelbine clearance to a modest degree
